Experimental data reported in patent US4818770A, “Prevention of a plant disease by specific inhibition of fungal polyamine biosynthesis” (priority 1986, dated 1989).
“And” between values parts separate entries of the source, which are not always exact repeats. Equal entries are not always repeated. “Also recorded” adds a separate entry of the source. Where two headings read alike, the source gives them in different places.

What was measured:
[1] = system: Uromyces phaseoli; assay: Bean rust lesions on unifoliolate leaves of Pinto bean sprayed before or after inoculation; format: in vivo
[2] = system: bean plants (Phaseolus vulgaris cv Pinto); assay: Effect of sprays on growth and appearance of bean plants; format: in vivo
Protocol: Unifoliolate leaves of 10-day-old bean seedlings were sprayed (400 ul per leaf) with DFMO or alpha-difluoromethylarginine (DFMA) at concentrations of 0.01-5 mM, before or after inoculation with uredospores of the bean rust, Uromyces phaseoli, Race 0. The inhibitor solutions were prepared in 0.01% Tween 20, with the pH adjusted to 7.0. Control plants without inhibitor were sprayed similarly and were allowed to dry before inoculation with the pathogen. After inoculation with rust uredospores (25 mg/100 ml of 0.01% Tween 20) all plants were placed in dew chambers (100% relative humidity) for 16 hours at 19° C. in total darkness. After exposures to inhibitors and uredospores, all plants were returned to the greenhouse and arranged randomly. Disease severity was evaluated 7 days after inoculation by counting foliar lesions. In control plants and those treated with low concentrations of DFMO, uredospores were collected randomly from each treatment to determine percent germination and pathogenicity. For determination of germination, spores were dusted onto Petri plates containing 10 mM 2-(N-morpholino)ethanesulfonic acid (Mes) at pH 7.0, 3 mM CaCl2, 2 mM MgSO4, and 1% purified agar, and incubated for 3 hr at 19° C. in the light.

[3] = system: Verticillium dahliae; assay: Radial mycelial growth of Verticillium dahliae in vitro; format: cell-based; conditions: for minimal effective concentration: Verticillium dahliae, in vitro
[4] = system: Verticillium dahliae; assay: Verticillium wilt symptoms in Bonny Best tomato after foliar spray; format: in vivo
[5] = system: P. recondita f. sp. tritici; format: in vivo, Puccinia recondita f. sp. tritici
[6] = system: PA titers of bean leaves; assay: Polyamine titers in leaves of sprayed bean plants; format: in vivo, Phaseolus vulgaris
Protocol: PA analysis was performed on leaf samples collected from inhibitor-sprayed bean plants. Leaf samples were ground in prechilled mortars with 10% (w/v) HClO4 at a ratio of 200 mg fresh weight leaf per ml HClO4. Homogenates were centrifuged at 26,00 g for 20 minutes at 4° C. The clear supernatant fractions were used for dansylation according to a procedure previously described. Briefly, 0.4 ml of freshly prepared dansyl (Diaminonaphthylsulfonyl)-C1 (Sigma), 5 mg/ml in acetone, and 0.2 ml of saturated Na2 CO3 were added to 0.2 ml of the supernatant fraction. The dansylated PA were extracted with 0.25 ml benzene and the clear benzene layer was used for PA determinations by TLC on LK6D high resolution silica gel plates (Whatman). After development in chloroform:triethylamine (25:2 v/v) for about 1 hour and location by fluorescence under a UV lamp, the dansylpolyamine bands were scraped off, eluted in 4 ml of ethyl acetate and quantified with an Aminco-Bowman fluorimeter.
The effect of DFMO and DFMA sprays (0.01, 0.1, and 1.0 mM) on PA titers was also examined. Unifoliolate leaves were sprayed in the usual way and examined 1 and 3 days later, while the first trifolioloate leaves, unexpanded ata the time of spray and themselves unsprayed, were examined 8 days later.

[7] = system: Puccinia graminis fsp avenae; format: in vivo
[8] = system: Puccinia sorghi; assay: Infection by corn rust; format: in vivo
[9] = system: Podosphaera leucotricha; assay: Infection of apple by powdery mildew; format: in vivo; conditions: 5 mM
[10] = system: bean rust uredospores; assay: Germination and differentiation of bean rust uredospores in agar; format: cell-based, Uromyces phaseoli; conditions: for inhibition at 100 µM / inhibition at 500 µM / inhibition at 1000 µM / inhibition at 5000 µM: Uromyces phaseoli
[11] = system: Erysiphe polygoni; assay: Infection by bean powdery mildew; format: in vivo
[12] = system: Erysiphe graminis; assay: Wheat powdery mildew infection, colonies per plant
Protocol: With wheat powdery mildew (E. graminis) 10-day-old seedlings were sprayed with solutions of DFMA or DFMO from 0.01 to 5.0 mM before and after inoculation of the plants with conidia. Inoculation occurred naturally in the greenhouse by distributing infected plants among the experimental plants for 24 hours. Infection was evaluated 10 days after inoculation by counting mildew colonies.

[13] = system: Colletotrichum lagenarium; assay: Infection of National Pickling cucumber plants by cucumber anthracnose
[14] = postinoculation exposure, inhibitor 0.01 mM
[15] = postinoculation exposure, inhibitor 0.025 mM
[16] = postinoculation exposure, inhibitor 0.05 mM
[17] = postinoculation exposure, inhibitor 0.075 mM
[18] = postinoculation exposure, inhibitor 0.10 mM
[19] = postinoculation exposure, inhibitor 0.25 mM
[20] = postinoculation exposure, inhibitor 0.50 mM
[21] = postinoculation exposure, inhibitor 1.0 mM
[22] = postinoculation exposure, inhibitor 5.0 mM
[23] = preinoculation exposure, inhibitor 0.01 mM
[24] = preinoculation exposure, inhibitor 0.025 mM
[25] = preinoculation exposure, inhibitor 0.05 mM
[26] = preinoculation exposure, inhibitor 0.075 mM
[27] = preinoculation exposure, inhibitor 0.10 mM
[28] = preinoculation exposure, inhibitor 0.25 mM
[29] = preinoculation exposure, inhibitor 0.50 mM
[30] = preinoculation exposure, inhibitor 1.0 mM
[31] = preinoculation exposure, inhibitor 5.0 mM

## NCCCC(N)(C(=O)O)C(F)F (racemic) [DFMO, DL-alpha-difluorimethylornithine]
[1]; 400 ul of 0.25 mM applied to a single leaf
  protection against infection: complete protection
[1]; DFMO at 0.5 mM or higher, pre- and postinoculation, 400 ul per leaf
  disease symptoms / protection against bean rust: No disease symptoms could be detected; also recorded: complete protection
[1]; plants treated with low concentrations
  germination or pathogenicity of uredospores collected from treated plants: no decrease in germination or pathogenicity
[1]; postinoculation exposure, lower concentrations, dose-dependent
  delay of uredial appearance: 2 to 6 days
[1]; [14]
  Lesions per cm^2: 40 ± 5 per cm^2
  Lesions per leaf: 1888 ± 249 per leaf
[1]; [15]
  Lesions per cm^2: 28 ± 2 per cm^2
  Lesions per leaf: 1526 ± 160 per leaf
[1]; [16]
  Lesions per cm^2: 17 ± 2 per cm^2
  Lesions per leaf: 1026 ± 131 per leaf
[1]; [17]
  Lesions per cm^2: 12 ± 1 per cm^2
  Lesions per leaf: 669 ± 96 per leaf
[1]; [18]
  Lesions per cm^2: 5 ± 1 per cm^2
  Lesions per leaf: 221 ± 39 per leaf
[1]; [19]
  Lesions per cm^2: 2 ± 1 per cm^2
  Lesions per leaf: 73 ± 4 per leaf
[1]; [20]
  Lesions per cm^2: 0 per cm^2
  Lesions per leaf: 0 per leaf
[1]; [21]
  Lesions per cm^2: 0 per cm^2
  Lesions per leaf: 0 per leaf
[1]; [22]
  Lesions per cm^2: 0 per cm^2
  Lesions per leaf: 0 per leaf
[1]; [23]
  Lesions per cm^2: 47 ± 6 per cm^2
  Lesions per leaf: 2677 ± 397 per leaf
[1]; [24]
  Lesions per cm^2: 34 ± 1 per cm^2
  Lesions per leaf: 2071 ± 103 per leaf
[1]; [25]
  Lesions per cm^2: 29 ± 4 per cm^2
  Lesions per leaf: 1712 ± 375 per leaf
[1]; [26]
  Lesions per cm^2: 19 ± 2 per cm^2
  Lesions per leaf: 1177 ± 159 per leaf
[1]; [27]
  Lesions per cm^2: 14 ± 2 per cm^2
  Lesions per leaf: 659 ± 104 per leaf
[1]; [28]
  Lesions per cm^2: 2 ± 1 per cm^2
  Lesions per leaf: 85 ± 20 per leaf
[1]; [29]
  Lesions per cm^2: 0 per cm^2
  Lesions per leaf: 0 per leaf
[1]; [30]
  Lesions per cm^2: 0 per cm^2
  Lesions per leaf: 0 per leaf
[1]; [31]
  Lesions per cm^2: 0 per cm^2
  Lesions per leaf: 0 per leaf
[2]; all concentrations, as high as 5 mM
  appearance, growth and development of sprayed bean plants: looked healthy, exhibiting no malformation or reduction in growth rate; also recorded: no apparent effect on growth and development of the plant
[2]; sprays 0.01, 0.1 and 1.0 mM
  growth of the bean plants: no effect
[3]; 192 h, 8 days, read-out: concentration reducing radial (mycelial) growth
  minimal effective concentration: ≥ 5 µM
[3]; read-out: concentration inhibiting pigment synthesis
  minimal effective concentration: ≥ 500 µM
[3]; putrescine added to culture medium
  effect of 1 mM putrescine on DFMO-induced growth inhibition: reversed
[4]; 2.5 mM and 10 mM, 24 hours after inoculation
  symptoms of Verticillium wilt compared to controls: suppressed symptoms
[4]; 5 mM DFMO, symptoms 21 days after inoculation
  most effective time for application: 24-48 hours post-inoculation
[4]; increasing concentration from 2.5 to 10 mM
  delay of onset of symptom expression: up to 7 days
[4]; spores applied to the soil, DFMO applied to the leaves
  wilt symptoms: greatly suppressed
[5]; 0.01 mM
  % control: 45% and 60%
  Uredia/plant: 44 Uredia/plant and 32 Uredia/plant
[5]; 0.025 mM
  % control: 51% and 66%
  Uredia/plant: 39 Uredia/plant and 27 Uredia/plant
[5]; 0.13 mM
  % control: 55% and 90%
[5]; 0.16 mM
  % control: 52% and 92%
[5]; 0.20 mM
  % control: 65% and 95%
[5]; 1.00 mM
  % control: 72% and 100%
[5]; in vivo
  % control: 52% and 82%
[6]; highest concentration of DFMO
  Put and Spd titers: increased
[6]; sprays 0.01, 0.1 and 1.0 mM, 1, 3 and 8 days later
  PA levels in treated leaves: no significant reductions
[7]; 0.01 mM
  Percent control: 50.7% and 50%
[7]; 0.025 mM
  Percent control: 63.2%
[7]; 0.065 mM
  Percent control: 65.5%
[7]; 0.10 mM
  Percent control: 71.0%
[7]; 0.13 mM
  Percent control: 67.9%
[7]; 0.16 mM
  Percent control: 77.3%
[8]; 0.01 mM
  Percent control: 43.5%
[8]; 0.025 mM
  Percent control: 38.4%
[8]; 0.065 mM
  Percent control: 37.4%
[8]; 0.10 mM
  Percent control: 63.1%
[8]; 0.13 mM
  Percent control: 67.7%
[8]; 0.16 mM
  Percent control: 88.7% and ~90%
[8]; 0.20 mM
  Percent control: 88.4%
[8]; 1.00 mM
  Percent control: 94.9%
[8]; Puccinia sorghi, read-out: concentration providing 50% protection against corn rust
  EC50: < 100 µM
[9]
  Percent control: 48.6%
[10]; 0.1 mM
  Differentiation %: 46%
  Germination %: 32%
[10]; 0.5 mM
  Differentiation %: 35%
  Germination %: 32%
[10]; 1.0 mM
  Differentiation %: 30%
  Germination %: 32%
[10]; 5.0 mM
  Differentiation %: 19%
  Germination %: 22%
[10]; 0.1 mM, read-out: Differentiation % Inhibiton
  inhibition at 100 µM: 22%
[10]; 0.1 mM, read-out: Germination % Inhibition
  inhibition at 100 µM: 24%
[10]; 0.5 mM, read-out: Differentiation % Inhibiton
  inhibition at 500 µM: 41%
[10]; 0.5 mM, read-out: Germination % Inhibition
  inhibition at 500 µM: 24%
[10]; 1.0 mM, read-out: Differentiation % Inhibiton
  inhibition at 1000 µM: 49%
[10]; 1.0 mM, read-out: Germination % Inhibition
  inhibition at 1000 µM: 24%
[10]; 5.0 mM, read-out: Differentiation % Inhibiton
  inhibition at 5000 µM: 68%
[10]; 5.0 mM, read-out: Germination % Inhibition
  inhibition at 5000 µM: 48%
[11]; 5 mM
  Percent control: 45%
[11]; 10 mM
  Percent control: 52% and ~50%
[12]; post-inoculation, 0.01 mM
  % control: 19%
  Colonies/plant: 30 Colonies/plant
[12]; post-inoculation, 0.025 mM
  % control: 30%
  Colonies/plant: 26 Colonies/plant
[12]; post-inoculation, 0.065 mM
  % control: 46%
  Colonies/plant: 20 Colonies/plant
[12]; post-inoculation, 0.10 mM
  % control: 68%
  Colonies/plant: 12 Colonies/plant
[12]; post-inoculation, 0.20 mM
  % control: 68%
  Colonies/plant: 12 Colonies/plant
[12]; post-inoculation, 1.00 mM
  % control: 76%
  Colonies/plant: 9 Colonies/plant
[12]; post-inoculation, 5.00 mM
  % control: 89%
  Colonies/plant: 4 Colonies/plant
[12]; pre-inoculation, 0.01 mM
  % control: 41%
  Colonies/plant: 22 Colonies/plant
[12]; pre-inoculation, 0.025 mM
  % control: 35%
  Colonies/plant: 24 Colonies/plant
[12]; pre-inoculation, 0.065 mM
  % control: 46%
  Colonies/plant: 20 Colonies/plant
[12]; pre-inoculation, 0.10 mM
  % control: 51%
  Colonies/plant: 18 Colonies/plant
[12]; pre-inoculation, 0.20 mM
  % control: 46%
  Colonies/plant: 20 Colonies/plant
[12]; pre-inoculation, 1.00 mM
  % control: 66%
  Colonies/plant: 13 Colonies/plant
[12]; pre-inoculation, 5.00 mM
  % control: 95%
  Colonies/plant: 2 Colonies/plant
[13]; 1.0 mM
  Lesions per plant: 69 per plant
  Percent control: 14%
[13]; 5.0 mM
  Lesions per plant: 69 per plant
  Percent control: 14%
[13]; 10.0 mM
  Lesions per plant: 70 per plant
  Percent control: 14%
